Measurements published in patent US9708500B2, “Liquid composition, pigment dispersion liquid, and aqueous ink composition for ink jet recording” (Seiko Epson Corporation, priority 2015, dated 2017).

Assay: distribution coefficient of water-octanol (log P), OECD Test Guideline 107
Settings: for log P (distribution coefficient of water-octanol): OECD Test Guideline 107
Source text: Here, the distribution coefficient of water-octanol, that is, a log P value represents a value which is defined by OECD Test Guideline 107. As the log P value is high, hydrophobicity is high, and as the log P value is low, hydrophilicity is high.

logP (octanol/water)	Structure (SMILES)	log P (distribution coefficient of water-octanol)
–	CCCC(=O)OCC(O)CO (stereo not drawn) [butyric acid 2,3-dihydroxypropyl]	−0.21
2.95	CCCC(=O)OCC(COC(=O)CCC)OC(=O)CCC [glycerin tributyrate]	–
–	CCCCCC(=O)OCC(O)CO (stereo not drawn) [hexanoic acid 2,3-dihydroxypropyl]	0.85
